Experimental data as given in patent US20160022751A1, “NOVEL COMPOSITION FOR TREATING ALZHEIMER'S DISEASE AND IMPROVING COGNITIVE FUNCTION OF ALZHEIMER'S PATIENTS” (GANGNEUNG-WONJU NATIONAL UNIVERSITY INDUSTRY ACADEMY …, priority 2014, published 2016).

Columns and labels:
NEP = NEP mRNA expression in HMO6 human microglial cells (qPCR); assay type: cell-based
Protocol: HMO6 human microglial cell line was kindly provided by Dr. SU Kim (Chung-Ang University, Korea). HMO6 cells were grown in Dulbecco's Modified Eagle's Medium (DMEM) (Hyclone, USA) supplemented with 10% fetal bovine serum, 100 U/ml penicillin, and 100 μg/ml streptomycin (Invitrogen, USA). Cultures were maintained under 5% CO2 at 37° C. in tissue culture flasks. Cells were grown to >90% confluency and subjected to no more than 20 cell passages. Medium was changed every 2-3 days. Subconfluent cells were harvested and seeded at a density of 5×10^5 cells or 5×10^6 cells in poly-L-lysine-coated 35-mm or 60-mm culture plates. […]
Total RNA extracts from HMO6 cells or perfused brain tissue were prepared using the Trizol method (Invitrogen). cDNA was synthesized from RNA by reverse transcription of 1 μg total RNA using the Improm-II reverse transcription system (Promega, Wis., USA) and oligo dT primers in a total volume of 20 μl. […] Relative sample expression levels were calculated using Rotor-Gene 6000 Series Software 1.7 and were expressed relative to β-actin for mice or glyceraldehyde 3-phosphate dehydrogenase for HMO6 cells and corrected for between-run variability. Data for the experimental samples are expressed as a percentage of the internal control gene. […]

p38 = p38 phosphorylation in HMO6 cells (western blot); assay type: cell-based, human; conditions: Rg3 5 μg/ml, western blot (FIG. 18)
Protocol: FIG. 18 is a photograph showing a result of western blot analysis for confirming the degree of phosphorylation of ERK (extracellular-regulated kinase) and p38, according to an embodiment of the present invention. Depending on the presence of Rg3, the levels of phospho-ERK and phospho-p38 protein were investigated by immune-blotting. HMO6 cells were treated with Rg3 (5 μg/ml) after plated on 60 mm cell culture plates and western blot analysis was performed after the cells were placed in phenol red negative/sere-free DMEM medium for 1 h. The western blot analysis was carried out three times independently.
HMO6 cells were lysed in 1% RIPA buffer containing protease and phosphatase inhibitors (Roche, Mannheim, Germany) and whole-cell lysates were separated on 10% sodium dodecyl sulfate-polyacrylamide gel electrophoresis. After electrophoresis, the proteins were transferred to polyvinylidene fluoride membranes, and the membranes were blocked with 5% skim milk in Tris-buffered saline solution containing 0.1% Tween-20. The membranes were then immunoblotted with primary antibodies, anti-phospho-p38, anti-p38, anti-phospho-ERK, anti-ERK, and anti-f3-actin (Santa Cruz Biotechnology, USA), followed by incubation with horseradish peroxidase-conjugated anti-rabbit or anti-mouse secondary antibodies (Stressgen, USA). Blots were developed using an enhanced chemiluminescent solution (Thermo, USA).

Aβ42 = assay: Passive avoidance trials (PAT) in Aβ42-infused animals; assay type: in vivo; conditions: Aβ42 rats administered Rg3 (FIG. 25)
Protocol: Male BALB/c mice (10 weeks old) were purchased from Samtaco (Korea), and were adapted to laboratory conditions (temperature: 20±2° C., relative humidity: 50%, light/dark cycle: 12 h) for 1 week. Five-week-old male Sprague-Dawley rats were obtained from Daehan-Biolink (Korea) for learning and memory testing. The animals (n=5/group) were maintained at a constant temperature (23±2° C.), relative humidity, 55±10%, and 12-h light/dark cycle. The animals were fed a standard rodent chow and purified water ad libitum. Lyophilized Aβ42 (0.5 mg, Bachem Torrance, USA) was resuspended in PBS (pH 7.4) by shaking for 7 days at room temperature to prepare the fibrillar-aggregated Aβ42 (fAβ42). At 10 weeks of age, mice were anesthetized, and 1 μl fAβ42 (350 μM stock concentration) was stereotaxically injected unilaterally into the parietal cortex (anterior 1.7 mm, lateral 1 mm, and ventral 1 mm to the bregma above the hippocampus within 1 min) (Mohajeri et al., J. Biol. Chem., 277: 35460-35465, 2002)
The present inventor performed learning and memory tests using rats in order to investigate whether Rg3 can ameliorate symptoms of Alzheimer's model animals in deed. […] The latency time of stay in the light room from lights-on was recorded following an electric shock (1 mA for 2 s) in the dark compartment. […] The mean time spent to escape onto the platform was recorded.

CC(C)=CCC[C@](C)(O)[C@H]1CC[C@]2(C)[C@@H]1[C@H](O)C[C@@H]1[C@@]3(C)CC[C@H](O[C@@H]4O[C@H](CO)[C@@H](O)[C@H](O)[C@H]4O[C@@H]4O[C@H](CO)[C@@H](O)[C@H](O)[C@H]4O)C(C)(C)[C@@H]3CC[C@]12C [ginsenoside Rg3]
NEP mRNA (NEP; HMO6 cells, Aβ42 (5 μM) and/or Rg3 (2.5 or 5 μg/ml), 24 h (FIG. 15D)): increased significantly
NEP mRNA expression (NEP; Rg3-treated HMO6 cells (FIG. 14)): dose-dependently increased
phosphorylation of p38 (p38): promoted the phosphorylation
learning and memory functions, passive avoidance (Aβ42): maintained learning and memory functions at 4-5 weeks
